{"source": "patent US12338484B2", "about": "“FRET biosensor for detecting and reporting NAD+/NADH ratio changes” (Sartorius BioAnalytical Instruments, Inc., priority 2022, dated 2025)", "assay_type_in_all_cases": "biochemical", "key": {"[1]": {"target": "Thermus aquaticus T-Rex FRET fusion, initial construct #14, Rex(A)-mEGFP-Rex(B)-mKOk, SEQ ID NO: 174 (Thermus aquaticus, UniProt Q9X2V5, E116G/F189I/K117M/K204T/K47E/R46D/R58D/S30A/Y98W)", "experiment": "FRET response (emission spectra) of purified initial construct #14 in absence or presence of 40 uM NADH", "parameters": "key: Good response: Constructs with very clear and robust spectra separation; Poor response: those with noticeable but small spectra separation; No response: those having no spectra separation", "description": "(§1) 16 initial FRET constructs (See Table 3) were constructed using expression vector pET28c with a T7 promoter and lac operator and expressed in E. coli. Cells were collected and lysed using a commercially-available lysis buffer. Proteins of interest were isolated from the lysates using Ni-NTA magnetic beads. Eluted proteins were subjected to buffer exchange and final protein concentrating. To test performance of the initial FRET constructs, their emission spectra was recorded on a plate reader in absence or presence of 40 uM NADH. Resulting emission spectra with or without the ligand were normalized and overlaid for each construct. Constructs with very clear and robust spectra separation were labeled as having “good response”, those with noticeable but small spectra separation were labeled as having “poor response”, and finally those having no spectra separation were labeled as having “no response”."}, "[2]": {"target": "T1, Thermus aquaticus T-Rex FRET fusion, initial construct #7, mKOk-Rex(78-211)-Rex(78-189)-cpmEGFP(173/174)-Rex(190-211), SEQ ID NO: 167 (Thermus aquaticus, UniProt Q9X2V5, INS189[…])", "T1 construct": "His-tag purified from E. coli", "experiment": "FRET response (emission spectra) of purified initial construct #7 in absence or presence of 40 uM NADH", "parameters": "key: Good response: Constructs with very clear and robust spectra separation; Poor response: those with noticeable but small spectra separation; No response: those having no spectra separation", "description": "as §1"}, "[3]": {"target": "Thermus aquaticus T-Rex FRET fusion, initial construct #13, mKOk-Rex(A)-mEGFP-Rex(B), SEQ ID NO: 173 (Thermus aquaticus, UniProt Q9X2V5, E116G/F189I/K117M/K204T/K47E/R46D/R58D/S30A/Y98W)", "experiment": "FRET response (emission spectra) of purified initial construct #13 in absence or presence of 40 uM NADH", "parameters": "key: Good response: Constructs with very clear and robust spectra separation; Poor response: those with noticeable but small spectra separation; No response: those having no spectra separation", "description": "as §1"}, "[4]": {"target": "T2, Thermus aquaticus T-Rex FRET fusion, initial construct #3, mKOk-Rex(78-211)-Rex(78-189)-cpmEGFP(145/146)-Rex(190-211), SEQ ID NO: 163 (Thermus aquaticus, UniProt Q9X2V5, INS189[…])", "T2 construct": "His-tag purified from E. coli", "experiment": "FRET response (emission spectra) of purified initial construct #3 in absence or presence of 40 uM NADH", "parameters": "key: Good response: Constructs with very clear and robust spectra separation; Poor response: those with noticeable but small spectra separation; No response: those having no spectra separation", "description": "as §1"}, "[5]": {"target": "T3, Thermus aquaticus T-Rex FRET fusion, initial construct #2, Rex(78-189)-cpmEGFP(145/146)-Rex(190-211)-Rex(78-211)-mKOk, SEQ ID NO: 162 (Thermus aquaticus, UniProt Q9X2V5, INS189[…])", "T3 construct": "His-tag purified from E. coli", "experiment": "FRET response (emission spectra) of purified initial construct #2 in absence or presence of 40 uM NADH", "parameters": "key: Good response: Constructs with very clear and robust spectra separation; Poor response: those with noticeable but small spectra separation; No response: those having no spectra separation", "description": "as §1"}, "[6]": {"target": "Thermus aquaticus T-Rex FRET fusion, initial construct #15, mEGFP-Rex(A)-mKOk-Rex(B), SEQ ID NO: 175 (Thermus aquaticus, UniProt Q9X2V5, E116G/F189I/K117M/K204T/K47E/R46D/R58D/S30A/Y98W)", "experiment": "FRET response (emission spectra) of purified initial construct #15 in absence or presence of 40 uM NADH", "parameters": "key: Good response: Constructs with very clear and robust spectra separation; Poor response: those with noticeable but small spectra separation; No response: those having no spectra separation", "description": "as §1"}, "[7]": {"target": "Thermus aquaticus T-Rex FRET fusion, initial construct #9, mKOk-Rex(A)-cpmEGFP(145/146)-Rex(B), SEQ ID NO: 169 (Thermus aquaticus, UniProt Q9X2V5, E116G/F189I/K117M/K204T/K47E/R46D/R58D/S30A/Y98W)", "experiment": "FRET response (emission spectra) of purified initial construct #9 in absence or presence of 40 uM NADH", "parameters": "key: Good response: Constructs with very clear and robust spectra separation; Poor response: those with noticeable but small spectra separation; No response: those having no spectra separation", "description": "as §1"}, "[8]": {"target": "Thermus aquaticus T-Rex FRET fusion, initial construct #16, Rex(A)-mKOk-Rex(B)-mEGFP, SEQ ID NO: 176 (Thermus aquaticus, UniProt Q9X2V5, E116G/F189I/K117M/K204T/K47E/R46D/R58D/S30A/Y98W)", "experiment": "FRET response (emission spectra) of purified initial construct #16 in absence or presence of 40 uM NADH", "parameters": "key: Good response: Constructs with very clear and robust spectra separation; Poor response: those with noticeable but small spectra separation; No response: those having no spectra separation", "description": "as §1"}, "[9]": {"target": "Thermus aquaticus T-Rex FRET fusion, initial construct #12, Rex(A)-cpmEGFP(173/174)-Rex(B)-mKOk, SEQ ID NO: 172 (Thermus aquaticus, UniProt Q9X2V5, E116G/F189I/K117M/K204T/K47E/R46D/R58D/S30A/Y98W)", "experiment": "FRET response (emission spectra) of purified initial construct #12 in absence or presence of 40 uM NADH", "parameters": "key: Good response: Constructs with very clear and robust spectra separation; Poor response: those with noticeable but small spectra separation; No response: those having no spectra separation", "description": "as §1"}, "[10]": {"target": "Thermus aquaticus T-Rex FRET biosensor construct #14 (Rex(A)-mEGFP-Rex(B)-mKOk, SEQ ID NO: 174), library variant 4-F1, SEQ ID NO: 18 (Thermus aquaticus, UniProt Q9X2V5, E116G/F189I/K117M/K47E/R46D/R58D/S30A/Y98W)", "experiment": "Signal window in bacterial lysates, FRET ratio in presence or absence of 200 uM NADH (Table 2)", "details": "clone 4-F1, SEQ ID NO: 18", "source_text": "In specific embodiments, the fusion protein comprises the amino acid sequence selected from the group consisting of SEQ ID NO: 13-93, 95-154, and 191-193; the sequences are provided in Table 2 and the examples.\nProtein library DNA was generated following cloning that assembled pieces of DNA that were generated using PCRs with mixtures of primers. DNA was transformed into E. coli, and the first round of protein library expression was done in bacterial colonies on agar plates. The colonies, each expressing different library members, were imaged, and then classified into groups based on their FRET ratio signal. Colonies from different groups were inoculated into 96-deep-well plates for further protein expression in liquid culture. The original construct that was used to generate the library (e.g., construct #14 in Table 2) was also inoculated on the same plates, along with non-expressing bacteria. The latter served as a negative control."}}, "data": [{"compound": "NC(=O)C1=CN([C@@H]2O[C@H](COP(=O)(O)OP(=O)(O)OC[C@H]3O[C@@H](n4cnc5c(N)ncnc54)[C@H](O)[C@@H]3O)[C@@H](O)[C@H]2O)C=CC1", "note": "[NADH]", "values": [{"measurement": "FRET response to NADH", "setting": "[1]", "result": "Good response"}, {"measurement": "FRET response to NADH", "setting": "[2]", "result": "No response"}, {"measurement": "FRET response to NADH", "setting": "[3]", "result": "Poor response"}, {"measurement": "FRET response to NADH", "setting": "[4]", "result": "No response"}, {"measurement": "FRET response to NADH", "setting": "[5]", "result": "Poor response"}, {"measurement": "FRET response to NADH", "setting": "[6]", "result": "No response"}, {"measurement": "FRET response to NADH", "setting": "[7]", "result": "No response"}, {"measurement": "FRET response to NADH", "setting": "[8]", "result": "Good response"}, {"measurement": "FRET response to NADH", "setting": "[9]", "result": "Good response"}, {"measurement": "Signal window (ex mode), measured in lysates", "setting": "[10]", "result": 0.33}]}]}
